Key:
[1] = molecular target: T1, Peroxisome proliferator-activated receptor gamma (Homo sapiens, UniProt P37231); assay type: functional
T1 sequence (P37231 whole entry): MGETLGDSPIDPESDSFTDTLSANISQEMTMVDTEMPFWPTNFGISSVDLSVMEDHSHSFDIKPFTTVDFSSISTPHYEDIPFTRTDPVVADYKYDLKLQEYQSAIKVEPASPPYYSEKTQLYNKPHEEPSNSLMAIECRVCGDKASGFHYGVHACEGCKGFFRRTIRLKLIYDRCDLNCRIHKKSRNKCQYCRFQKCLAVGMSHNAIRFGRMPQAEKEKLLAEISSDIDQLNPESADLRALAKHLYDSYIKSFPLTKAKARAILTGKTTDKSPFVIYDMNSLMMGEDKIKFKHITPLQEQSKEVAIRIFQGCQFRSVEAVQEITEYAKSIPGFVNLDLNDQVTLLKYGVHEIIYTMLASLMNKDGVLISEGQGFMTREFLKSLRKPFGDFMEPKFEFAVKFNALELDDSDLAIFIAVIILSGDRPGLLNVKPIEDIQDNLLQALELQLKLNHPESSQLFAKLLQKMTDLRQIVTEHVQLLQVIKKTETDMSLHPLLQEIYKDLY

[2] = molecular target: Gamma-aminobutyric acid receptor subunit alpha-1/alpha-2/beta-2/gamma-2 (Homo sapiens, UniProt P14867+P18507+P47869+P47870); assay type: functional, cell-based
Chain of Gamma-aminobutyric acid receptor subunit alpha-1/alpha-2/beta-2/gamma-2 (P14867 whole entry): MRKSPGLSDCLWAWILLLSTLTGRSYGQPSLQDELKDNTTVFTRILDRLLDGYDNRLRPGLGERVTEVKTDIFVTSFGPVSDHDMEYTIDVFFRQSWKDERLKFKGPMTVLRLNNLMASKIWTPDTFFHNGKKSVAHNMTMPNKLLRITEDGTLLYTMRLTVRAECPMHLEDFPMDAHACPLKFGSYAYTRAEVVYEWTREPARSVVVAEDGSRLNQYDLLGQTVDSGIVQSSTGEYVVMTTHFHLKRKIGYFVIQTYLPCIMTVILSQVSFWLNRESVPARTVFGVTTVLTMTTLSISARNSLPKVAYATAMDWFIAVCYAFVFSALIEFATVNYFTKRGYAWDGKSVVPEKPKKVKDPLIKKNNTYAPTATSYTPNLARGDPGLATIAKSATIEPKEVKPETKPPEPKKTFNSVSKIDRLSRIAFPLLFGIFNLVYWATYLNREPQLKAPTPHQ
Chain of Gamma-aminobutyric acid receptor subunit alpha-1/alpha-2/beta-2/gamma-2 (P47870 whole entry): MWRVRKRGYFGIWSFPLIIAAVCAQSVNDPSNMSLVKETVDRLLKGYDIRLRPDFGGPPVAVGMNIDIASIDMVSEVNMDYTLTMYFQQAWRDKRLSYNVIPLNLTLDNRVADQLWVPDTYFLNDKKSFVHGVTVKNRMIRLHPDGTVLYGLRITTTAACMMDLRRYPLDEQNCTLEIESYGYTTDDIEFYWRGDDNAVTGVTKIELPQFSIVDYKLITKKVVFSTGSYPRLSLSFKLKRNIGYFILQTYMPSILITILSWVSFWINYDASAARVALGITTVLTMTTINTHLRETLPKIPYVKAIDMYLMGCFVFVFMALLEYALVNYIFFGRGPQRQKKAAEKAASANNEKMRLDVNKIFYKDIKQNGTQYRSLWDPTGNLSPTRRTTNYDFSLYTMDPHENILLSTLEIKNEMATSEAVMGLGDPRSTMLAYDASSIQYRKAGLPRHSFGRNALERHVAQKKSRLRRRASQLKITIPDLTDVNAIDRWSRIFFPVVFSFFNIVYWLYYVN
Chain of Gamma-aminobutyric acid receptor subunit alpha-1/alpha-2/beta-2/gamma-2 (P18507 whole entry): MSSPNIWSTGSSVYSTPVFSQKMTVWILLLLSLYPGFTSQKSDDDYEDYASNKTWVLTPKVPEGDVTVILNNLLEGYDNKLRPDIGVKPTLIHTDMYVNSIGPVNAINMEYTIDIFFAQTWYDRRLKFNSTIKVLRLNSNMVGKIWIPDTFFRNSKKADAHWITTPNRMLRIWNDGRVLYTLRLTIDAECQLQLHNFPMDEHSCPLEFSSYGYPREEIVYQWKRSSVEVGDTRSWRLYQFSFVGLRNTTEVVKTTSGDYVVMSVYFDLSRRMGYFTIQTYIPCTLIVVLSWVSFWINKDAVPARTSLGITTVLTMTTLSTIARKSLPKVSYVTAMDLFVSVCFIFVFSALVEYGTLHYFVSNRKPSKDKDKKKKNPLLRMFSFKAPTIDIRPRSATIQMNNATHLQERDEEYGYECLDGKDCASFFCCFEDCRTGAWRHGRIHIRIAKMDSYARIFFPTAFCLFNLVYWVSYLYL
Chain of Gamma-aminobutyric acid receptor subunit alpha-1/alpha-2/beta-2/gamma-2 (P47869 whole entry): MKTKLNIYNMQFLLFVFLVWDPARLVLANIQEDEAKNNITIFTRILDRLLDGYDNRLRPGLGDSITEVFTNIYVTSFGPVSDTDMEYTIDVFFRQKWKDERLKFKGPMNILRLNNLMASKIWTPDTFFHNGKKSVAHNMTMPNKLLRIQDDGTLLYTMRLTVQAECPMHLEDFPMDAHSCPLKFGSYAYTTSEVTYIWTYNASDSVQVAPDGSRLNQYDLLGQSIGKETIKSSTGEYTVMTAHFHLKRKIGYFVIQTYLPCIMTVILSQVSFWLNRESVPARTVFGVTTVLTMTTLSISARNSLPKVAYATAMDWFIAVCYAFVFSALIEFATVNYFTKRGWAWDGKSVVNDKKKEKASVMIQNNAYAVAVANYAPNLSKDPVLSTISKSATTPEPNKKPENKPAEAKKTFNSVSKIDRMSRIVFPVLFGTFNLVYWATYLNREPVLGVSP

B1 bradykinin receptor = molecular target: T2, B1 bradykinin receptor (Homo sapiens, UniProt P46663)
T2 sequence (P46663 whole entry): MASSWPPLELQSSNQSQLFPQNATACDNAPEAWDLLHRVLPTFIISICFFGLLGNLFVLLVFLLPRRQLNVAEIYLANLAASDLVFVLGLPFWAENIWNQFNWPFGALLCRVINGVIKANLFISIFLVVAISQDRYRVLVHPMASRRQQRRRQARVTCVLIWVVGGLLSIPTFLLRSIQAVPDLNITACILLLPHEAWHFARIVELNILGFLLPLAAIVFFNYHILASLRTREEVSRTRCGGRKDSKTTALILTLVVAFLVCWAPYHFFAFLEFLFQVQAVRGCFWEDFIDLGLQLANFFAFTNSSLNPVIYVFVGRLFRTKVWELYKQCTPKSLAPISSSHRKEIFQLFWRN

Histamine H2 receptor = Histamine H2 receptor (Homo sapiens, UniProt P25021)
Chain of Histamine H2 receptor (P25021 whole entry): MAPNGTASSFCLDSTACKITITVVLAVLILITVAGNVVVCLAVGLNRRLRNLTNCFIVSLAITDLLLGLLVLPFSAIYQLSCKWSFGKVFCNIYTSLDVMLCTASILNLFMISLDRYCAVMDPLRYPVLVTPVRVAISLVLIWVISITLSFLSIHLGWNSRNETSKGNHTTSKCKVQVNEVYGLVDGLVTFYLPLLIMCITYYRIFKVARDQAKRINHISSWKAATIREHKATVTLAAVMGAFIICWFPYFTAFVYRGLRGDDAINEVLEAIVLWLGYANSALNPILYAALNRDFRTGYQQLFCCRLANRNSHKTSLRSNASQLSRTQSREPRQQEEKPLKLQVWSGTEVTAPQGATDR

Glucagon receptor = Glucagon receptor (Homo sapiens, UniProt P47871)
Chain of Glucagon receptor (P47871 whole entry): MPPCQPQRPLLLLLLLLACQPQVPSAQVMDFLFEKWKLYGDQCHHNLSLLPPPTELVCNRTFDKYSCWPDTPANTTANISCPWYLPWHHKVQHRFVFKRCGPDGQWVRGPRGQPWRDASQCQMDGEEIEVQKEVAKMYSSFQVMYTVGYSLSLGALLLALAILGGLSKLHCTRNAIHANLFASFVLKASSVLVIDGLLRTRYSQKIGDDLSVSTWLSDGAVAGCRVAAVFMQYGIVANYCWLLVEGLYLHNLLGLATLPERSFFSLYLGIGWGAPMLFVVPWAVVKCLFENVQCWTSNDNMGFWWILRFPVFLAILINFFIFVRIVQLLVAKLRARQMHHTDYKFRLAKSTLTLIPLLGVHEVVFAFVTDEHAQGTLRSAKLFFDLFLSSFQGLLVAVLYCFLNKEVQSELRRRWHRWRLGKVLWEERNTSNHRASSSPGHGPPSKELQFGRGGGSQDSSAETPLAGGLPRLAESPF

[3] = molecular target: Neurotensin receptor type 1 (Homo sapiens, UniProt P30989)
Chain of Neurotensin receptor type 1 (P30989 whole entry): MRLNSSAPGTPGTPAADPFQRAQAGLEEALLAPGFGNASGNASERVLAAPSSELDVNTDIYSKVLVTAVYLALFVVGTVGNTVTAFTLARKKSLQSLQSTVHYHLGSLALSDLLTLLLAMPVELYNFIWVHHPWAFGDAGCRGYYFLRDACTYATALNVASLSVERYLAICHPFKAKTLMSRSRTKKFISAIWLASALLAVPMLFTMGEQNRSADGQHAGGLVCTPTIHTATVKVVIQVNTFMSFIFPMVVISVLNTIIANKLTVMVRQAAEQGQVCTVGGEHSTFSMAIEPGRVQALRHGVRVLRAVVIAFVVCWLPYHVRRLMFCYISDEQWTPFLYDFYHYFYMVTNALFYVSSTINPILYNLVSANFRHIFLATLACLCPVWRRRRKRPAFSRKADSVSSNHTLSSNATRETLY

[4] = molecular target: T3, Neuropeptide Y receptor type 2 (Homo sapiens, UniProt P49146)
T3 sequence (P49146 whole entry): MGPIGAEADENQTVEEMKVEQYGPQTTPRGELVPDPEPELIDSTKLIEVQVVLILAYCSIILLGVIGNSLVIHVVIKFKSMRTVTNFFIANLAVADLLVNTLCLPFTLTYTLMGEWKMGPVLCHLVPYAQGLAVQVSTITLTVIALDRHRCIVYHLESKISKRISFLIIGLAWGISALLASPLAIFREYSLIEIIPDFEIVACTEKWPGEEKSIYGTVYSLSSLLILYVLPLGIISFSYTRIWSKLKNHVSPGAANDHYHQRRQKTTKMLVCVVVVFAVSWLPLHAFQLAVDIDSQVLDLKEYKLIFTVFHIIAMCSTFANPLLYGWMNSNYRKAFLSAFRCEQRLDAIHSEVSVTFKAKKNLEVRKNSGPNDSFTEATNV

[5] = molecular target: T4, Alpha-1A adrenergic receptor (Homo sapiens, UniProt P35348)
T4 sequence (P35348 whole entry): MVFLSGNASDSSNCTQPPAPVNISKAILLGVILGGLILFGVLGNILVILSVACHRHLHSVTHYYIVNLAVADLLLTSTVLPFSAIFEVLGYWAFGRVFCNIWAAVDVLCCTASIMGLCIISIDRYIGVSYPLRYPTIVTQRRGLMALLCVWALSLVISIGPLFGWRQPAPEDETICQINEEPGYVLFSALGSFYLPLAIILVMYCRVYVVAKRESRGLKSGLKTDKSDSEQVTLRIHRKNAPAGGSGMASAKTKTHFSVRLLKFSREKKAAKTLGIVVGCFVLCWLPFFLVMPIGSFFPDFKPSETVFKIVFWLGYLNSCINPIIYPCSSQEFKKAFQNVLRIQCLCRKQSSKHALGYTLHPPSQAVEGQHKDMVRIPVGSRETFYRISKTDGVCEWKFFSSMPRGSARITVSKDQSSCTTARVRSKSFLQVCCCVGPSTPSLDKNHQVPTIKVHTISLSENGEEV

Progesterone receptor = molecular target: T5, Progesterone receptor (Homo sapiens, UniProt P06401)
T5 sequence (P06401 whole entry): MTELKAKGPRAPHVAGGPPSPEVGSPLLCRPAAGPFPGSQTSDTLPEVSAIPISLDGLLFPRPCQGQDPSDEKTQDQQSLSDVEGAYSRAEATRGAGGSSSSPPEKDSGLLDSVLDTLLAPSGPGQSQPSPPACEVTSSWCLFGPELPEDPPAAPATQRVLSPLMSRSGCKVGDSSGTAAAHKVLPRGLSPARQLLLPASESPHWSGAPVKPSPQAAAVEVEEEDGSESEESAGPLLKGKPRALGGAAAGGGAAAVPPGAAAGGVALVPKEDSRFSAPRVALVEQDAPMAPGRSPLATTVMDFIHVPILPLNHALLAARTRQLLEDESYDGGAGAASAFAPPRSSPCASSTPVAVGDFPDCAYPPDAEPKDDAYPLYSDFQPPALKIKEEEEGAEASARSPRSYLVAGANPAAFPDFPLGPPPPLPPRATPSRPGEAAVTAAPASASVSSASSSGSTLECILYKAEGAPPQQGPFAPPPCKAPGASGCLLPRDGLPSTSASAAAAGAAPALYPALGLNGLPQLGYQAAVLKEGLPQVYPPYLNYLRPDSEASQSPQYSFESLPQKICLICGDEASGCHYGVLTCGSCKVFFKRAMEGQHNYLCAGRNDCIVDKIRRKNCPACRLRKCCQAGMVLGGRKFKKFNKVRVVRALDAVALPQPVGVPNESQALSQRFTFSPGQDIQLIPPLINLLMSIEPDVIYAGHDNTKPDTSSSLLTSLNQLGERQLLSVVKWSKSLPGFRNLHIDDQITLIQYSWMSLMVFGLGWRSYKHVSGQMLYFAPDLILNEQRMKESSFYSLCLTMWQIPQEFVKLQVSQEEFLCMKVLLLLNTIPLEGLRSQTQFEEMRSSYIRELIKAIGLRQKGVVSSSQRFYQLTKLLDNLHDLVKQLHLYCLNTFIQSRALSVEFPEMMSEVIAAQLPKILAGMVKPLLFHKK
Also: assay procedure not described here.

AC50 [1]	AC50 [2]	Compound	AC50 (B1 bradykinin receptor)	AC50 (Histamine H2 receptor)	AC50 (Glucagon receptor)	AC50 [3]	AC50 [4]	AC50 [5]	AC50 (Progesterone receptor)
–	–	CCOC(=O)[C@H](CCc1ccccc1)N[C@@H](C)C(=O)N1CCC[C@H]1C(=O)O	> 30 µM	> 10 µM	> 30 µM	> 30 µM	> 30 µM	> 10 µM	–
–	–	Nc1nc(N)c2nc(-c3ccccc3)c(N)nc2n1	> 10 µM	> 10 µM	> 30 µM	> 30 µM	> 30 µM	> 10 µM	> 30 µM
–	–	C[C@H]1O[C@H](O[C@H]2[C@H](O)[C@@H](O)[C@@H](O[C@H]3[C@H](O)[C@@H](O)C(O)O[C@@H]3CO)O[C@@H]2CO)[C@H](O)[C@@H](O)[C@@H]1N[C@H]1C=C(CO)[C@@H](O)[C@H](O)[C@H]1O (some centres not stated) [ACARBOSE]	> 30 µM	> 10 µM	> 30 µM	> 30 µM	> 30 µM	> 10 µM	> 30 µM
> 30 µM	> 30 µM	CC(=O)c1ccc2c(c1)N(CCCN1CCN(CCO)CC1)c1ccccc1S2 [ACETOPHENAZINE]	–	–	–	–	–	–	–
–	–	Oc1ncnc2[nH]ncc12 [ALLOPURINOL]	> 30 µM	> 10 µM	> 30 µM	> 30 µM	> 30 µM	> 10 µM	> 30 µM
> 30 µM	19 µM	CN1CCCC(n2nc(Cc3ccc(Cl)cc3)c3ccccc3c2=O)CC1 (configuration not stated) [AZELASTINE]	–	–	–	–	–	–	–
–	–	CC(C)NCC(O)COc1ccc(COCCOC(C)C)cc1 (configuration not stated) [BISOPROLOL]	> 30 µM	> 10 µM	> 30 µM	> 30 µM	> 30 µM	> 10 µM	> 30 µM
–	–	COc1cc(Nc2c(C#N)cnc3cc(OCCCN4CCN(C)CC4)c(OC)cc23)c(Cl)cc1Cl [BOSUTINIB]	> 30 µM	–	> 30 µM	> 30 µM	> 30 µM	–	> 30 µM
–	–	CCC[C@@H]1C[C@@H](C(=O)N[C@@H]([C@H]2O[C@H](SC)[C@H](O)[C@@H](O)[C@H]2O)[C@H](C)Cl)N(C)C1 [CLINDAMYCIN]	> 30 µM	> 10 µM	> 30 µM	> 30 µM	> 30 µM	> 10 µM	> 30 µM
–	–	CN(CCOc1ccc(NS(C)(=O)=O)cc1)CCc1ccc(NS(C)(=O)=O)cc1 [DOFETILIDE]	> 30 µM	> 10 µM	> 30 µM	> 30 µM	> 30 µM	> 10 µM	> 30 µM
–	–	COc1cc2c(cc1OC)C(=O)C(CC1CCN(Cc3ccccc3)CC1)C2 (configuration not stated) [DONEPEZIL]	> 30 µM	> 10 µM	> 30 µM	> 30 µM	> 30 µM	–	> 30 µM
–	–	C#C[C@]1(O)CC[C@H]2[C@@H]3CCc4cc(O)ccc4[C@H]3CC[C@@]21C [ETHINYL ESTRADIOL]	> 30 µM	> 10 µM	> 30 µM	> 30 µM	> 30 µM	> 10 µM	> 30 µM

Compound	AC50 [1]	AC50 [2]	AC50 (B1 bradykinin receptor)	AC50 (Histamine H2 receptor)	AC50 (Glucagon receptor)	AC50 [3]	AC50 [4]	AC50 [5]	AC50 (Progesterone receptor)
CO/N=C(\C(=O)N[C@@H]1C(=O)N2C(C(=O)[O-])=C(C[N+]3(C)CCCC3)CS[C@H]12)c1csc(N)n1	200 µM	> 2400 µM	–	–	–	–	–	–	–

Reference: ChEMBL document CHEMBL5291721, “A preclinical secondary pharmacology resource illuminates target-adverse drug reaction associations of marketed drugs” (Nat Commun, 2023)
